Reference: patent US4182896A, “Indane derivatives” (Societe Hexachimie, priority 1974, dated 1980)
Counter-ions that a name gives are not always drawn.

What was measured:
[1] = system: SPF male rats, OFA strain; assay: Anti-inflammatory activity: paw swelling after subcutaneous plantar injection of carraghenine, oral administration; format: in vivo; settings: Rattus norvegicus, po; for inhibition in vivo at 4 mg/kg: 4 mg/kg oral; for inhibition in vivo at 16 mg/kg: 16 mg/kg oral; for inhibition in vivo at 64 mg/kg: 64 mg/kg oral; for inhibition in vivo at 128 mg/kg: 128 mg/kg oral; for ED50: at the moment of greatest swelling of the controls, read-out: ED50 (50% effective dose), anti-inflammatory; for inhibition in vivo at 32 mg/kg: 32 mg/kg oral; for inhibition in vivo at 256 mg/kg: 256 mg/kg oral; for inhibition in vivo at 8 mg/kg: 8 mg/kg oral
Method: Anti-inflammatory activity
The products to be tested are administered orally to batches of 12 SPF male rats, OFA strain, weighing 120-130 g, 2 hours and 30 minutes (1/2 dose each time) before the subcutaneous plantar injection of 0.05 ml of a 1% strength solution of carraghenine. The volume of the back paw which received the phlogogenic agent is measured at regular intervals. The 50% effective dose is calculated at the moment of greatest swelling of the controls.
The results are given in Tables I to IV below, in which the percentage reduction in the inflammation is noted.

[2] = system: male mice (SPF1, OF1 strain); assay: Analgesic activity: inhibition of pain reactions (abdominal twistings) after intraperitoneal phenylbenzoquinone, oral administration; format: in vivo; settings: Mus musculus, po; for inhibition in vivo at 8 mg/kg: 8 mg/kg oral; for inhibition in vivo at 8 mg/kg / inhibition in vivo at 16 mg/kg / inhibition in vivo at 32 mg/kg / inhibition in vivo at 64 mg/kg / inhibition in vivo at 128 mg/kg / inhibition in vivo at 256 mg/kg / inhibition in vivo at 512 mg/kg / inhibition in vivo at 2 mg/kg / inhibition in vivo at 4 mg/kg: read-out: percentage inhibition of pain reactions; for inhibition in vivo at 16 mg/kg: 16 mg/kg oral; for inhibition in vivo at 32 mg/kg: 32 mg/kg oral; for inhibition in vivo at 64 mg/kg: 64 mg/kg oral; for ED50: read-out: ED50 (50% effective dose), analgesic; for inhibition in vivo at 128 mg/kg: 128 mg/kg oral; for inhibition in vivo at 256 mg/kg: 256 mg/kg oral; for inhibition in vivo at 512 mg/kg: 512 mg/kg oral; for inhibition in vivo at 2 mg/kg: 2 mg/kg oral; for inhibition in vivo at 4 mg/kg: 4 mg/kg oral
Method: The products tested are administered orally to batches of 6 male mice (SPF1, OF1 strain) weighing 19-20 g.
1 hour later, 0.3 ml of a 0.02% strength solution of phenylbenzoquinone is injected intraperitoneally into each mouse and, from the 5th to the 10th minute after the latter treatment, the number of pain reactions (abdominal twistings) is counted.
Table V to VIII below give the percentage inhibition of these reactions.

[3] = carraghenine, read-out: percentage reduction in the inflammation

SMILES	inhibition in vivo at 4 mg/kg [1, 3] [%]	inhibition in vivo at 16 mg/kg [1, 3] [%]	inhibition in vivo at 64 mg/kg [1, 3] [%]	inhibition in vivo at 128 mg/kg [1, 3] [%]	ED50 [1] [mg/kg]	inhibition in vivo at 8 mg/kg [2] [%]	inhibition in vivo at 16 mg/kg [2] [%]	inhibition in vivo at 32 mg/kg [2] [%]	inhibition in vivo at 64 mg/kg [2] [%]	ED50 [2] [mg/kg]	inhibition in vivo at 32 mg/kg [1, 3] [%]	inhibition in vivo at 128 mg/kg [2] [%]	inhibition in vivo at 256 mg/kg [2] [%]	inhibition in vivo at 256 mg/kg [1, 3] [%]	inhibition in vivo at 512 mg/kg [2] [%]	inhibition in vivo at 8 mg/kg [1, 3] [%]	inhibition in vivo at 512 mg/kg ([1]; 512 mg/kg oral, carraghenine, read-out: percentage reduction in the inflammation) [%]	inhibition in vivo at 2 mg/kg [2] [%]	inhibition in vivo at 4 mg/kg [2] [%]
CC(C(=O)OCCN1CCCC1)c1ccc2c(c1)CC(C(C)C)C2 (centres unmarked) [Example 32, Maleate of the pyrrolidino-ethyl ester of 2-methyl-[2-isopropyl-indanyl-(5)]-acetic acid]	19	21	59	55	65	6	47	79	99	18									
CC(C(=O)OCCN1CCOCC1)c1ccc2c(c1)CC(C(C)C)C2 (centres unmarked) [Example 9, Morpholino-ethyl ester of 2-methyl-[2-isopropyl-indanyl-(5)]-acetic acid]		47	80		17			28	26	78	68	79	97						
CC1Cc2ccc(CCO)cc2C1 (stereo not drawn) [Example 35, β-[2-Methyl-indanyl-(5)]-ethanol]		43	56	76	35			10	27	87	42	69	95	89					
CC1Cc2ccc(CC(=O)O)cc2C1 (centres unmarked) [Example 12, [2-Methyl-indanyl-(5)]-acetic acid]		15	49	71	70			9	20	175	23	46	67	80	75				
CC(C(=O)O)c1ccc2c(c1)CC(C(C)C)C2 (centres unmarked) [Example 7, 2-Methyl-[2-Isopropyl-indanyl-(5)]-acetic acid]		43	73	75	22	17	61	96		14	61					29			
O=C(O)Cc1ccc2c(c1)CC(C1CCCCC1)C2 (centres unmarked) [Example 11, [2-Cyclohexyl-indanyl-(5)]-acetic acid]			8	13	> 512			15	29	140	4	58	59	13	83		32		
CCC1Cc2ccc(C(C)C(=O)O)cc2C1 (centres unmarked) [Example 18, 2-Methyl-[2-ethyl-indanyl-(5)]-acetic acid]		31	61	66	36	58	75	95		6.5	54			77				18	27
CC(C)C1Cc2ccc(CC(=O)OCCN3CCOCC3)cc2C1 (centres unmarked) [Example 8, Hydrochloride of the morpholino-ethyl ester of [2-isopropyl-indanyl-(5)]-acetic acid]			23	52	150			10	67	70	17	73	90	62					
CC1Cc2ccc(CC(=O)OCCN3CCOCC3)cc2C1 (centres unmarked) [Example 21, Hydrochloride of the morpholino-ethyl ester of [2-methyl-indanyl-(5)]-acetic acid]			25	52	130				2	200	17	51	71	68	81				
CC(CO)c1ccc2c(c1)CC(C(C)C)C2 (stereo not drawn) [Example 33, 2-Methyl-β-[2-isopropyl-indanyl-(5)]-ethanol]		13	52	58	85	42	68	90		9	34			63		0		6	25
CC(C)C1Cc2ccc(CC(=O)O)cc2C1 (centres unmarked) [Example 4, [2-Isopropyl-indanyl-(5)]-acetic acid]			19	47	120		6	33	70	40	10	99		80					
CC(C(=O)OCCN(C)C)c1ccc2c(c1)CC(C(C)C)C2 (centres unmarked) [Example 27, Hydrochloride of the dimethylaminoethyl ester of 2-methyl-[2-isopropyl-indanyl-(5)]-acetic acid]	29	54	61	64	22	7	42	69	94			99		76					
CCC1Cc2ccc(C(C)CO)cc2C1 (stereo not drawn) [Example 34, 2-Methyl-β-[2-ethyl-indanyl-(5)]-ethanol]		46	51	60	50			12	22	95	42	60	94	61					
CC1(C)Cc2ccc(CC(=O)O)cc2C1 [Example 13, [2,2-Dimethyl-indanyl-(5)]-acetic acid]		23	37	47	200		15	30	71	46	29	83		51					
CCN(CC)CCOC(=O)C(C)c1ccc2c(c1)CC(C(C)C)C2 (centres unmarked) [Example 28, Oxalate of the diethylaminoethyl ester of 2-methyl-[2-isopropylindanyl-(5)]-acetic acid]	37	31	66	72	24	20	40	66	86	20				79					21
